Measured values from patent publication US10358434B2, “2-(3-pyridinyl)-1H-benzimidazole derivative compound and medicament containing same” (NIHON MEDI-PHYSICS CO., LTD., priority 2014, dated 2019).

How the values were obtained:
[1] = Plasma stability evaluation (TLC analysis); assay type: in vitro ADME; details: 37° C., 60 minutes
Method: Evaluation was made using a heparin-treated normal human plasma pool (Kohjin Bio Co., Ltd.). Compounds [^18F] 100, [^18F] 200, [^123I] 400, [^18F] 500, and [^123I] 601 to 610 obtained by the methods shown in Examples 2, 4, 7, 9, 11, 13, 15, 17, 19, 21, 23, 25, 27, and 29 were each added to the aforementioned human plasma (5 mL), and the obtained mixture was then incubated at 37° C. for 60 minutes. Thereafter, the mixture was centrifuged with addition of methanol, so that a deproteinization treatment was carried out. Thereafter, stability was evaluated by TLC analysis. As TLC analysis conditions, the TLC analysis conditions applied upon the above described synthesis of each compound were applied.

[2] = In vivo kinetics experiment (radioactivity distribution); set-up: species or system Wistar male rat; details: rat; for Adrenal gland/blood ratio of radioactivity accumulation / Adrenal gland/fat ratio of radioactivity accumulation / Adrenal gland/kidney ratio of radioactivity accumulation / Adrenal gland/liver ratio of radioactivity accumulation / Adrenal gland/muscle ratio of radioactivity accumulation / Adrenal gland/small intestine ratio of radioactivity accumulation / Radioactivity distribution Adrenal gland / Radioactivity distribution Bladder (including urine) / Radioactivity distribution Blood / Radioactivity distribution Fat / Radioactivity distribution Heart / Radioactivity distribution Kidney / Radioactivity distribution Large intestine / Radioactivity distribution Liver / Radioactivity distribution Lung / Radioactivity distribution Muscle (lower limbs) / Radioactivity distribution Remaining whole body / Radioactivity distribution Small intestine / Radioactivity distribution Spleen / Radioactivity distribution Stomach / Radioactivity distribution Testis / Radioactivity distribution Thyroid gland / Radioactivity distribution Whole brain: caudal vein
Summary of the method: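 Tissue radioactivity (% ID/g) and adrenal-to-blood, liver, kidney, small intestine, muscle and fat ratios determined at 10, 30 and 60 min post-dose. Tracers (approximately 1 to 3.7 MBq, saline with 1 w/v % ascorbic acid) injected i.v. into caudal vein of anesthetized 9-week male Wistar rats; organs excised, weighed, counted.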

[3] = tested on: human adrenal gland section expressing aldosterone-producing adenoma; test: In vitro autoradiography using human adrenal adenoma; assay type: binding
Summary of the method: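 Autoradiography readout: PSL in equal-sized ROIs over adenoma (B2) and normal adrenal cortex (B1), expressed as B2/B1 and decay-corrected using half-life, applied activity and plate contact time. Tissue was surgically excised human adrenal, frozen and cut at 7 μm, incubated 10 min with 5-33 kBq/mL tracer in BSA-containing PBS, then imaged after 16-20 h exposure.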

FCCn1c(-c2cncc(Cn3ccnc3)c2)nc2cc(F)c([123I])cc21 [[^123I] 400, 5-Fluoro-1-(2-fluoroethyl)-2-[5-(imidazol-1-ylmethyl)pyridin-3-yl]-6-[^123I]iodobenzimidazole]
stability in human plasma [1]: hardly metabolized and decomposed in the plasma | Radiochemical purity after incubation in human plasma ([1]; TLC analysis): 88% | accumulation of radioactivity in adrenal gland vs blood and peripheral tissues ([2]; Tables 9 to 22): high accumulation of radioactivity in adrenal gland was observed, in comparison to in blood and peripheral tissues | Adrenal gland/blood ratio of radioactivity accumulation ([2]; 10 min after administration): 28.34 | Adrenal gland/fat ratio of radioactivity accumulation ([2]; 10 min after administration): 89.23 | Adrenal gland/kidney ratio of radioactivity accumulation ([2]; 10 min after administration): 5.85 | Adrenal gland/liver ratio of radioactivity accumulation ([2]; 10 min after administration): 3.02 | Adrenal gland/muscle ratio of radioactivity accumulation ([2]; 10 min after administration): 54.21 | Adrenal gland/small intestine ratio of radioactivity accumulation ([2]; 10 min after administration): 6.95 | Radioactivity distribution Adrenal gland ([2]; 10 min after administration): 9.09 % ID/g | Radioactivity distribution Bladder (including urine) ([2]; 10 min after administration): 0.32 % ID/g | Radioactivity distribution Blood ([2]; 10 min after administration): 0.32 % ID/g | Radioactivity distribution Fat ([2]; 10 min after administration): 0.10 % ID/g | Radioactivity distribution Heart ([2]; 10 min after administration): 0.63 % ID/g | Radioactivity distribution Kidney ([2]; 10 min after administration): 1.54 % ID/g | Radioactivity distribution Large intestine ([2]; 10 min after administration): 0.19 % ID/g | Radioactivity distribution Liver ([2]; 10 min after administration): 2.98 % ID/g | Radioactivity distribution Lung ([2]; 10 min after administration): 1.06 % ID/g | Radioactivity distribution Muscle (lower limbs) ([2]; 10 min after administration): 0.17 % ID/g | Radioactivity distribution Remaining whole body ([2]; 10 min after administration): 0.27 % ID/g | Radioactivity distribution Small intestine ([2]; 10 min after administration): 1.30 % ID/g | Radioactivity distribution Spleen ([2]; 10 min after administration): 5.26 % ID/g | Radioactivity distribution Stomach ([2]; 10 min after administration): 1.03 % ID/g | Radioactivity distribution Testis ([2]; 10 min after administration): 0.07 % ID/g | Radioactivity distribution Thyroid gland ([2]; 10 min after administration): 3.54 % ID/g | Radioactivity distribution Whole brain ([2]; 10 min after administration): 0.02 % ID/g | Adrenal gland/blood ratio of radioactivity accumulation ([2]; 30 min after administration): 40.26 | Adrenal gland/fat ratio of radioactivity accumulation ([2]; 30 min after administration): 147.73 | Adrenal gland/kidney ratio of radioactivity accumulation ([2]; 30 min after administration): 17.90 | Adrenal gland/liver ratio of radioactivity accumulation ([2]; 30 min after administration): 13.82 | Adrenal gland/muscle ratio of radioactivity accumulation ([2]; 30 min after administration): 110.91 | Adrenal gland/small intestine ratio of radioactivity accumulation ([2]; 30 min after administration): 9.24 | Radioactivity distribution Adrenal gland ([2]; 30 min after administration): 16.93 % ID/g | Radioactivity distribution Bladder (including urine) ([2]; 30 min after administration): 1.35 % ID/g | Radioactivity distribution Blood ([2]; 30 min after administration): 0.43 % ID/g | Radioactivity distribution Fat ([2]; 30 min after administration): 0.12 % ID/g | Radioactivity distribution Heart ([2]; 30 min after administration): 0.49 % ID/g | Radioactivity distribution Kidney ([2]; 30 min after administration): 0.95 % ID/g | Radioactivity distribution Large intestine ([2]; 30 min after administration): 0.19 % ID/g | Radioactivity distribution Liver ([2]; 30 min after administration): 1.24 % ID/g | Radioactivity distribution Lung ([2]; 30 min after administration): 0.76 % ID/g | Radioactivity distribution Muscle (lower limbs) ([2]; 30 min after administration): 0.15 % ID/g | Radioactivity distribution Remaining whole body ([2]; 30 min after administration): 0.31 % ID/g | Radioactivity distribution Small intestine ([2]; 30 min after administration): 1.83 % ID/g | Radioactivity distribution Spleen ([2]; 30 min after administration): 5.44 % ID/g | Radioactivity distribution Stomach ([2]; 30 min after administration): 2.24 % ID/g | Radioactivity distribution Testis ([2]; 30 min after administration): 0.12 % ID/g | Radioactivity distribution Thyroid gland ([2]; 30 min after administration): 9.97 % ID/g | Radioactivity distribution Whole brain ([2]; 30 min after administration): 0.02 % ID/g | Adrenal gland/blood ratio of radioactivity accumulation ([2]; 60 min after administration): 29.41 ± 3.13 | Adrenal gland/fat ratio of radioactivity accumulation ([2]; 60 min after administration): 105.17 ± 28.98 | Adrenal gland/kidney ratio of radioactivity accumulation ([2]; 60 min after administration): 18.87 ± 3.12 | Adrenal gland/liver ratio of radioactivity accumulation ([2]; 60 min after administration): 16.66 ± 3.13 | Adrenal gland/muscle ratio of radioactivity accumulation ([2]; 60 min after administration): 95.38 ± 22.07 | Adrenal gland/small intestine ratio of radioactivity accumulation ([2]; 60 min after administration): 6.64 ± 2.31 | Radioactivity distribution Adrenal gland ([2]; 60 min after administration): 11.65 ± 1.54 % ID/g | Radioactivity distribution Bladder (including urine) ([2]; 60 min after administration): 1.27 ± 0.07 % ID/g | Radioactivity distribution Blood ([2]; 60 min after administration): 0.40 ± 0.01 % ID/g | Radioactivity distribution Fat ([2]; 60 min after administration): 0.11 ± 0.02 % ID/g | Radioactivity distribution Heart ([2]; 60 min after administration): 0.35 ± 0.03 % ID/g | Radioactivity distribution Kidney ([2]; 60 min after administration): 0.62 ± 0.08 % ID/g | Radioactivity distribution Large intestine ([2]; 60 min after administration): 0.43 ± 0.19 % ID/g | Radioactivity distribution Liver ([2]; 60 min after administration): 0.70 ± 0.05 % ID/g | Radioactivity distribution Lung ([2]; 60 min after administration): 0.60 ± 0.03 % ID/g | Radioactivity distribution Muscle (lower limbs) ([2]; 60 min after administration): 0.12 ± 0.02 % ID/g | Radioactivity distribution Remaining whole body ([2]; 60 min after administration): 0.33 ± 0.02 % ID/g | Radioactivity distribution Small intestine ([2]; 60 min after administration): 1.85 ± 0.44 % ID/g | Radioactivity distribution Spleen ([2]; 60 min after administration): 5.27 ± 0.89 % ID/g | Radioactivity distribution Stomach ([2]; 60 min after administration): 4.35 ± 0.25 % ID/g | Radioactivity distribution Testis ([2]; 60 min after administration): 0.15 ± 0.01 % ID/g | Radioactivity distribution Thyroid gland ([2]; 60 min after administration): 19.76 ± 1.03 % ID/g | Radioactivity distribution Whole brain ([2]; 60 min after administration): 0.02 ± 0.00 % ID/g | accumulation of radioactivity in adrenal gland section (autoradiogram) ([3]; FIGS. 18 to 31): accumulation of radioactivity was selectively observed in a region in which aldosterone-producing adenoma had been pathologically observed | B2/B1 accumulation ratio ([3]; section of FIG. 17(a)): 2.89 | B2 (PSL value, aldosterone-producing adenoma) ([3]; section of FIG. 17(a), site 71a): 4611 | B1 (PSL value, normal adrenal cortex) ([3]; section of FIG. 17(a), site 72a): 1596
